Data: patent US20100311751A1, “SOLID DISPERSIONS CONTAINING AN APOPTOSIS-PROMOTING AGENT” (ABBOTT LABORATORIES, priority 2009, published 2010)

Assay: solubility in water
Type: physicochemical
Conditions: pH 2
Text: Examples of such active ingredients are, for example, Biopharmaceutics Classification System (BCS) Class IV drug substances that are characterized by low solubility and low permeability (see “Waiver of in vivo bioavailability and bioequivalence studies for immediate-release solid oral dosage forms based on a biopharmaceutics classification system”, U.S. Department of Health and Human Services, Food and Drug Administration, Center for Drug Evaluation and Research (CDER), August 2000). It will be recognized that aqueous solubility of many compounds is pH-dependent; in the case of such compounds the solubility of interest herein is at a physiologically relevant pH, for example a pH of about 1 to about 8.

SMILES: CC1(C)CCC(c2ccc(Cl)cc2)=C(CN2CCN(c3ccc(C(=O)NS(=O)(=O)c4ccc(N[C@H](CCN5CCOCC5)CSc5ccccc5)c(S(=O)(=O)C(F)(F)F)c4)cc3)CC2)C1 [ABT-263]
- solubility in water: less than 4 μg/ml
